For 53 compounds, IC50 results are on record in the Kinase Knowledgebase extract (Sharma et al. 2016).

Where only a bound is given, the exact number is not on record here.

The target of assay [1] is EGFR (UniProt P00533).
The target in assay [2] is CDK2 (UniProt P24941). The experiment in a line: Enzyme Assay.

Sequence of EGFR (P00533 whole entry, looked up): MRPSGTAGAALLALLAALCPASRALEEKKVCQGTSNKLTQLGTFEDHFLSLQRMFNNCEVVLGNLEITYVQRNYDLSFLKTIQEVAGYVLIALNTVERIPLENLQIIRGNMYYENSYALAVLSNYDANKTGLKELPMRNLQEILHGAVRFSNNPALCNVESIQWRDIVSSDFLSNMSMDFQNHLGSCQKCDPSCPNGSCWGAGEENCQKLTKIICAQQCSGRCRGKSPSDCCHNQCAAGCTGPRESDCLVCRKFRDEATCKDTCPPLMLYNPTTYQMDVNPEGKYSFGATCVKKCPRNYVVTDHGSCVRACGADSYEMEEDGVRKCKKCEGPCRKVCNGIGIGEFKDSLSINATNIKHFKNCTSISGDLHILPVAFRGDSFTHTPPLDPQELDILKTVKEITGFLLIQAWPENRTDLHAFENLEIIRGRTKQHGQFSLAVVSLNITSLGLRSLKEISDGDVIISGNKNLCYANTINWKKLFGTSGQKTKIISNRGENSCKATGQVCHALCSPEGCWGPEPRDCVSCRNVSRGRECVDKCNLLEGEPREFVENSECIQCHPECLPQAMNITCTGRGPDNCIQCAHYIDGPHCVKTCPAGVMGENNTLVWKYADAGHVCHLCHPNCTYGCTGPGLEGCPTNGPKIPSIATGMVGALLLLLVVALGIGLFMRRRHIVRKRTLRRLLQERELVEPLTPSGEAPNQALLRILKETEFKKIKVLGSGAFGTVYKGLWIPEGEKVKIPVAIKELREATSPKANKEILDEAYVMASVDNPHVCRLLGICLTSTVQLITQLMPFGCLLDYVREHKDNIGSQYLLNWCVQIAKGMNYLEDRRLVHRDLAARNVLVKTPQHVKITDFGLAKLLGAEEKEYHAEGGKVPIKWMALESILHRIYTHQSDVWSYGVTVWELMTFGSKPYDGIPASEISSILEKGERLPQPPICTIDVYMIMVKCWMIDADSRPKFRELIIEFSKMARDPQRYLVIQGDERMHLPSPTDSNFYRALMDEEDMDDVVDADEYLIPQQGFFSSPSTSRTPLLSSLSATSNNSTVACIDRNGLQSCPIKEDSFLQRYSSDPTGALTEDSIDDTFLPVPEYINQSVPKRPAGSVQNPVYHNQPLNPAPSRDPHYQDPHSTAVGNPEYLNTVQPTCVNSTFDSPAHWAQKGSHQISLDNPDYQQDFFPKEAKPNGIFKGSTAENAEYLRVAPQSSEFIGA

Usually IC50 stands for the concentration at which inhibition is half-maximal. The low end stands for higher potency, the high end for lower potency. Turning to `Cc1nc[nH]c1/C=C1\C(=O)Nc2cccc(C3CCNCC3)c21`, the values for the IC50 in assay [1] and in assay [2] were above 20 µM and 0.01 µM, respectively.

For the compound `Cc1nc[nH]c1/C=C1\C(=O)Nc2cccc(-c3ccncc3)c21`, the half-maximal inhibitory concentration (IC50) is above 20 µM in assay [1] and 0.03 µM in assay [2].

`CCOC(=O)c1[nH]c(/C=C2\C(=O)Nc3cccc(C4CCNCC4)c32)c2c1CCCC2` came in with an IC50 in assay [1] of 14.7 µM.

Compound `CN1CCc2c(c[nH]c2/C=C2\C(=O)Nc3cccc(C4CCNCC4)c32)C1=O` yielded a half-maximal inhibitory concentration (IC50) in assay [2] of 0.26 µM.

The compound `O=C1Nc2cccc(C3CCNCC3)c2/C1=C/c1cc2c([nH]1)CCCC2` had an IC50 in assay [1] above 20 µM.

In the case of `Cc1cc(C(=O)N2CCN(C)CC2)[nH]c1/C=C1\C(=O)Nc2cccc(C3CCNCC3)c21`, the IC50 in assay [1] is above 20 µM.

`CCOC(=O)c1c(C)[nH]c(/C=C2\C(=O)Nc3cccc(-c4cncc(C(=O)O)c4)c32)c1CCCN1CCN(C)CC1` displayed a concentration for half-maximal inhibition (IC50) in assay [1] above 20 µM.

In the case of `Cc1[nH]c(/C=C2\C(=O)Nc3cccc(-c4ccc(N)nc4)c32)c(C)c1C(=O)N1CCN(C)CC1`, the IC50 in assay [1] was above 20 µM.

In assay [1], `Cc1[nH]c(/C=C2\C(=O)Nc3cccc(C4CCNCC4)c32)c(-c2ccccc2)c1C(=O)Nc1ccncc1` showed an IC50 above 20 µM.

In assay [1], `Cc1[nH]c(/C=C2\C(=O)Nc3cccc(-c4ccncc4)c32)c(C)c1C(=O)N1CCN(C)CC1` gave a concentration for half-maximal inhibition (IC50) above 20 µM.

In turn, `O=C(O)CCc1c(/C=C2\C(=O)Nc3cccc(-c4ccncc4)c32)[nH]c2c1CCCC2` gave an IC50 in assay [1] above 20 µM.

Turning to `Cc1cc(C(=O)O)c(/C=C2\C(=O)Nc3cccc(C4CCNCC4)c32)[nH]1`, the half-maximal inhibitory concentration (IC50) in assay [1] was above 20 µM.

In assay [1], `O=C1Nc2cccc(-c3ccncc3)c2/C1=C/c1[nH]c2c(c1CCCN1CCOCC1)CCCC2` had an IC50 above 20 µM.

Compound `Cc1[nH]c(/C=C2\C(=O)Nc3cccc(-c4cncnc4)c32)c(C)c1C(=O)N1CCN(C)CC1` came in with an IC50 in assay [1] above 20 µM.

For the compound `Cc1[nH]c(/C=C2\C(=O)Nc3cccc(C4CCNCC4)c32)c(C)c1CC(=O)O`, the IC50 in assay [1] was above 20 µM.

Turning to `Cc1c(C(=O)N2CCOCC2)c[nH]c1/C=C1\C(=O)Nc2cccc(C3CCNCC3)c21`, the half-inhibitory concentration (IC50) in assay [1] was above 20 µM; in assay [2] it was 0.02 µM.

The compound `O=C1Nc2cccc(-c3ccncc3)c2/C1=C/c1cc2cc(OCCN3CCOCC3)ccc2[nH]1` returned an IC50 in assay [1] of 17.9 µM. In other words, the double-digit micromolar range.

The compound `O=C1Nc2cccc(C3CCNCC3)c2/C1=C/c1[nH]cc(C(=O)O)c1CCO` returned an IC50 in assay [1] above 20 µM.

As to `O=C1Nc2cccc(C3CCNCC3)c2/C1=C/c1cc2cc(OCCN3CCOCC3)ccc2[nH]1`, the IC50 in assay [1] is 19.1 µM; in assay [2] it was 1.96 µM.

As for `O=C1Nc2cccc(C3CCNCC3)c2/C1=C/c1[nH]cc2c1CCOC2=O`, the IC50 in assay [1] was above 20 µM; in assay [2], 0.009 µM.

With `Cc1[nH]c(/C=C2\C(=O)Nc3cccc(-c4ccncc4)c32)c(C)c1CCC(=O)O`, the IC50 in assay [1] is above 20 µM.

In assay [1], `CCc1cc(CCC(=O)O)c(/C=C2\C(=O)Nc3cccc(C4CCNCC4)c32)[nH]1` gave an IC50 above 20 µM.

In assay [1], `Cc1cc(C(=O)O)[nH]c1/C=C1\C(=O)Nc2cccc(C3CCNCC3)c21` had an IC50 above 20 µM.

In assay [1], `CCOC(=O)c1c(C)[nH]c(/C=C2\C(=O)Nc3cccc(-c4ccc(N)nc4)c32)c1CCCN1CCN(C)CC1` came in with a concentration for half-maximal inhibition (IC50) above 20 µM.

In turn, `CCOC(=O)c1c(C)[nH]c(/C=C2\C(=O)Nc3cccc(-c4cccnc4)c32)c1CCCN1CCN(C)CC1` returned an IC50 in assay [1] above 20 µM.

`O=C1Nc2cccc(-c3ccncc3)c2/C1=C/c1[nH]cc2c1CCOC2=O`: the IC50 in assay [1] is above 20 µM; in assay [2], 0.08 µM.

On to `Cc1[nH]c(/C=C2\C(=O)Nc3cccc(C4CCNCC4)c32)c(C)c1CCC(=O)O`, for which the IC50 in assay [1] was above 20 µM.

As for `Cc1cc(CCC(=O)O)c(/C=C2\C(=O)Nc3cccc(-c4ccncc4)c32)[nH]1`, in assay [1], the concentration for half-maximal inhibition (IC50) is above 20 µM.

For the compound `O=C1Nc2cccc(-c3ccncc3)c2/C1=C/c1cc2ccccc2[nH]1`, the IC50 in assay [1] was 16.3 µM.

In the case of `Cc1[nH]c(/C=C2\C(=O)Nc3cccc(-c4nccs4)c32)c(C)c1C(=O)N1CCN(C)CC1`, the IC50 in assay [1] is above 20 µM.

For the compound `CCOC(=O)c1c(C)[nH]c(/C=C2\C(=O)Nc3cccc(-c4nccs4)c32)c1CCCN1CCN(C)CC1`, in assay [1], the IC50 is above 20 µM.

With `Cc1c(C(=O)N2CCCCC2)c[nH]c1/C=C1\C(=O)Nc2cccc(C3CCNCC3)c21`, the half-inhibitory concentration (IC50) in assay [1] was above 20 µM; in assay [2] it was 0.02 µM.

Consider `CCOC(=O)c1c(C)[nH]c(/C=C2\C(=O)Nc3cccc(-c4cncnc4)c32)c1CCCN1CCN(C)CC1`, for which, in assay [1], the half-inhibitory concentration (IC50) is above 20 µM.

As for `CCOC(=O)c1c(C)[nH]c(/C=C2\C(=O)Nc3cccc(-c4ccncc4)c32)c1CCC(=O)O`, the IC50 in assay [1] is above 20 µM.

With `CCOC(=O)c1c(C)[nH]c(/C=C2\C(=O)Nc3cccc(-c4ccccn4)c32)c1CCCN1CCN(C)CC1`, the half-inhibitory concentration (IC50) in assay [1] is above 20 µM.

With `Cc1[nH]c(/C=C2\C(=O)Nc3cccc(-c4ccccn4)c32)c(C)c1C(=O)N1CCN(C)CC1`, the IC50 in assay [1] is above 20 µM.

`Cc1cc(C(=O)O)c(/C=C2\C(=O)Nc3cccc(-c4ccncc4)c32)[nH]1`: in assay [1], the half-inhibitory concentration (IC50) was above 20 µM.

As for `Cc1c(C(=O)N2CCCCC2)c[nH]c1/C=C1\C(=O)Nc2cccc(-c3ccncc3)c21`, the figures for the 50% inhibitory concentration (IC50) in assay [1] and in assay [2] were above 20 µM and 0.75 µM, respectively.

With `O=C1Nc2cccc(C3CCNCC3)c2/C1=C/c1ccc(N2CCOCC2)cc1`, in assay [1], the IC50 is above 20 µM.

For `CCN(CC)CCNC(=O)c1c(C)[nH]c(/C=C2\C(=O)Nc3cccc(C4CCNCC4)c32)c1C`, in assay [1], the half-inhibitory concentration (IC50) is above 20 µM.

`CCOC(=O)c1[nH]c(/C=C2\C(=O)Nc3cccc(C4CCNCC4)c32)c(CCC(=O)O)c1C` had a 50% inhibitory concentration (IC50) in assay [1] above 20 µM.

On to `Cc1cc(C(=O)O)[nH]c1/C=C1\C(=O)Nc2cccc(-c3ccncc3)c21`, for which the IC50 in assay [1] is above 20 µM.

On to `CCN(CC)CCNC(=O)c1c(C)[nH]c(/C=C2\C(=O)Nc3cccc(-c4cncc(C(=O)O)c4)c32)c1C`, for which the concentration for half-maximal inhibition (IC50) in assay [1] was above 20 µM.

Turning to `O=C1Nc2cccc(C3CCNCC3)c2/C1=C/c1cc2ccccc2[nH]1`, in assay [1], the half-maximal inhibitory concentration (IC50) was above 20 µM.

On to `Cc1[nH]c(/C=C2\C(=O)Nc3cccc(-c4cncc(C(=O)O)c4)c32)c(C)c1C(=O)N1CCN(C)CC1`, for which the half-inhibitory concentration (IC50) in assay [1] is above 20 µM.

Compound `Cc1[nH]c(/C=C2\C(=O)Nc3cccc(-c4cccnc4)c32)c(C)c1C(=O)N1CCN(C)CC1` showed a concentration for half-maximal inhibition (IC50) in assay [1] above 20 µM.

`O=C1Nc2cccc(C3CCNCC3)c2/C1=C/c1[nH]c2c(c1CCCN1CCOCC1)CCCC2` gave an IC50 in assay [1] above 20 µM.

Regarding `Cc1cc(C)c(/C=C2\C(=O)Nc3cccc(-c4ccncc4)c32)[nH]1`, the IC50 in assay [1] is above 20 µM.

In assay [1], `CCc1cc(CCC(=O)O)c(/C=C2\C(=O)Nc3cccc(-c4ccncc4)c32)[nH]1` displayed an IC50 above 20 µM.

In turn, `O=C1Nc2cccc(C3CCNCC3)c2/C1=C/c1[nH]cc2c1CCNC2=O` registered an IC50 in assay [2] of 0.06 µM.

Compound `CCN(CC)CCNC(=O)c1c(C)[nH]c(/C=C2\C(=O)Nc3cccc(-c4ccncc4)c32)c1C` showed a concentration for half-maximal inhibition (IC50) in assay [1] above 20 µM.

In assay [1], `Cc1[nH]c(/C=C2\C(=O)Nc3cccc(-c4ccncc4)c32)c(C)c1CC(=O)O` gave a 50% inhibitory concentration (IC50) above 20 µM.

In assay [1], `Cc1ccc(/C=C2\C(=O)Nc3cccc(C4CCNCC4)c32)s1` yielded a half-inhibitory concentration (IC50) above 20 µM.
